Source: PubChem BioAssay (NCI)
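Cells were grown in 96-well plates and exposed to each compound for 48 hours at five concentrations; endpoints were interpolated linearly between bracketing concentrations, or set to the highest concentration if not reached. GI50: concentration for 50% inhibition of growth. TGI is the concentration that stops growth completely.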

Assays:
Assay in all cases: DTP human tumour cell line panel, 48 h
[1] = test system: ACHN renal
[2] = test system: CAKI-1 renal
[3] = test system: HCT-15 colon
[4] = test system: HOP-62 NSCLC
[5] = test system: KM12 colon
[6] = test system: MOLT-4 leukemia
[7] = test system: SNB-75 CNS
[8] = test system: RPMI-8226 leukemia
[9] = test system: MCF7 breast
[10] = test system: PC-3 prostate

| Structure (SMILES) | TGI [1] [µM] | TGI [2] [µM] | TGI [3] [µM] | TGI [4] [µM] | TGI [5] [µM] | TGI [6] [µM] | TGI [7] [µM] | TGI [8] [µM] | GI50 [1] [µM] | GI50 [2] [µM] | GI50 [3] [µM] | GI50 [4] [µM] | GI50 [5] [µM] | GI50 [9] [µM] | TGI [9] [µM] | GI50 [6] [µM] | GI50 [10] [µM] | TGI [10] [µM] | GI50 [7] [µM] | GI50 [8] [µM] |
| --- | --- | --- | --- | --- | --- | --- | --- | --- | --- | --- | --- | --- | --- | --- | --- | --- | --- | --- | --- | --- |
| OCC[N+]12CCCN1CCC2 | > 100 | > 100 | > 100 | > 100 | > 100 | > 100 | > 100 | – | – | – | – | – | – | – | – | – | – | – | – | – |
| O=C(N/C(=C\c1cccc([N+](=O)[O-])c1)c1nc2ccccc2[nH]1)c1ccccc1 | > 100 | > 100 | > 100 | > 100 | > 100 | > 100 | > 100 | > 100 | – | – | – | – | – | – | – | – | – | – | – | – |
| COc1cc(-c2nc3sc(C)cn3c2/C=C2\C(=O)Nc3ccccc32)c(Br)c(OC)c1OC | > 100 | 57 | > 100 | 88.7 | 49.5 | > 100 | 51.5 | – | 32.1 | 22.6 | 29.1 | 26.5 | 17.5 | 5.81 | 43.3 | 36.4 | 32.2 | > 100 | 22.2 | – |
| CC(C)(C)c1cc(CCCCCCCC2(CCCCCCCc3cc(C(C)(C)C)cc(C(C)(C)C)c3)OC(COCCOCCCCCC#N)C(COCCOCCCCCC#N)O2)cc(C(C)(C)C)c1 (stereo not drawn) | > 100 | > 100 | > 100 | > 100 | > 100 | – | > 100 | – | – | – | – | – | – | – | – | – | – | – | – | – |
| Oc1c(Cl)cc(Cl)cc1/C=N/Nc1nnc(N/N=C/c2cc(Cl)cc(Cl)c2O)c2ccccc12 | > 100 | – | > 100 | > 28.8 | > 100 | > 100 | > 31.1 | > 100 | 0.394 | 0.643 | 0.334 | 0.388 | 0.335 | 0.482 | > 100 | 0.363 | – | – | 0.867 | 0.405 |
| O=C(COc1cccc(/C=C2\CSc3ccc(Cl)cc3C2=O)c1)c1ccc(Cl)cc1 | 25 | 34.1 | 3.9 | 72.7 | 4.13 | 4.46 | 37.8 | – | 12.5 | 12.2 | 1.8 | 22.1 | 1.76 | 2.12 | 10.4 | 1.84 | 3.35 | 11.4 | 14 | – |
| CCOc1cn(C2OC(CO)C(O)C2O)c(=O)[nH]c1=O (stereo not drawn) | > 100 | > 100 | > 100 | > 100 | > 100 | > 100 | > 100 | > 100 | – | – | – | – | – | – | – | – | – | – | – | – |
| COc1cc(CNCCN2C(=O)c3ccc4c5c(ccc(c35)C2=O)C(=O)N(CCNCc2cc(OC)c(OC)c(OC)c2)C4=O)cc(OC)c1OC | 1.12 | – | – | 0.999 | – | – | 0.826 | – | 0.487 | – | – | 0.28 | – | 0.262 | 1.05 | – | – | – | 0.232 | – |
| NS(=O)(=O)c1ccc(Nc2c3ccccc3nc3c(C(=O)N4CCN(CCO)CC4)cccc23)cc1 | > 100 | > 100 | > 100 | > 100 | > 100 | > 100 | > 100 | – | – | – | – | – | – | – | – | – | – | – | – | – |
| COc1ccc(C(=O)c2c3cc(OC)c(OC)c(OC)c3cc[n+]2C)cc1 | > 100 | – | – | > 100 | > 100 | > 100 | 95.7 | 49 | – | – | – | – | – | – | – | – | – | – | – | – |
| COc1ccc(CCN(CC(=O)N(CC(N)=O)C2CCC[C@@H]2OCc2ccccc2)C(=O)CN(C(=O)CN(CCc2ccc(Cl)cc2)C(=O)CN(C(=O)CN(C)Cc2ccccc2F)[C@H](C)C2CCCCC2)[C@H](C)C2CCCCC2)cc1OC (stereo partly drawn) | > 50 | – | > 50 | > 50 | > 50 | 2.46 | > 50 | 3.28 | 2.05 | – | 2.77 | 3.02 | 1.58 | 1.17 | > 50 | 0.689 | 1.37 | > 50 | 1.09 | 1.19 |
| CC(=O)O[C@H]1CCN2C(=O)C=CC(OCc3ccccc3)C12 (stereo partly drawn) | > 100 | > 100 | > 100 | > 100 | > 100 | > 100 | > 100 | > 100 | – | – | – | – | – | – | – | – | – | – | – | – |
| CC(C)(C)C(=O)Nc1cccc2oc(-c3ccccc3)cc12 | > 100 | > 100 | > 100 | > 100 | > 100 | > 100 | > 100 | > 100 | – | – | – | – | – | – | – | – | – | – | – | – |
| Cc1ccc(/C=C(\NC(=O)c2ccccc2)c2nc3ccccc3[nH]2)cc1 | > 100 | – | > 100 | > 100 | > 100 | – | – | – | – | – | – | – | – | – | – | – | – | – | – | – |
| CN(C)CCCSc1ccccc1NC1=C(Cl)C(=O)C(Nc2ccccc2SCCCN(C)C)=C(Cl)C1=O | – | – | 3.32 | 10.6 | 4.09 | 2.68 | 23.2 | 5.62 | – | – | 1.69 | 3.59 | 1.89 | 1.65 | 3.94 | 0.41 | 1.68 | 3.84 | 11.1 | 2.35 |
| CSc1nc2nn(Cc3ccccc3)cc2c(=O)[nH]1 | > 100 | > 100 | > 100 | > 100 | > 100 | > 100 | > 100 | > 100 | – | – | – | – | – | – | – | – | – | – | – | – |
| CCN(CC)CC(C)C(=O)/C=C/c1ccc(C)cc1 (stereo not drawn) | 4.36 | 2.49 | 5.71 | 33.5 | 1.96 | 7.07 | 3.17 | > 100 | – | – | – | – | – | – | – | – | – | – | – | – |
| NS(=O)(=O)c1ccc(NC(=O)Cc2nc3ccccc3s2)cc1 | 29.3 | 30.5 | 32.3 | 50.9 | 30.8 | 58.6 | 30.4 | 74.1 | – | – | – | – | – | – | – | – | – | – | – | – |
| O=C(/C=C/c1ccccc1O)c1ccc([N+](=O)[O-])cc1 | 26.4 | 39.1 | 46.8 | 32.4 | 40.4 | 76.6 | 31.6 | – | – | – | – | – | – | – | – | – | – | – | – | – |
| CSc1ccc2c(cc1=O)[C@@H](NC(=O)c1ccc(Cl)cc1)CCc1cc(O)c(O)c(O)c1-2 | > 100 | > 100 | 51.7 | > 100 | > 100 | > 100 | > 100 | 91.5 | – | – | – | – | – | – | – | – | – | – | – | – |
| C[C@@H](NS(=O)(=O)c1ccc(NC(=O)c2ccccc2)cc1)C(=O)O | > 100 | > 100 | > 100 | – | > 100 | > 100 | > 100 | > 100 | – | – | – | – | – | – | – | – | – | – | – | – |
